These are literature values, as cited in US20060127456A1, “Novel fiber-based consumer products based on new concepts of fiber modification” (priority 2004, published 2006).

In the case of `II` [Iodine], the increase of solubility (in 1% aqueous solution of PVP, versus water) is reported as roughly 17 fold. Besides, the solubility in water result (water) was “very sparingly soluble”.
